This passage reports IC50 results from US9718819B2 (Merck Sharp & Dohme Corp., priority 2012, dated 2017).

As a reminder, the IC50 is the concentration at which inhibition is half-maximal.

This experiment deals with HIV-1 RT wild-type enzyme (Human immunodeficiency virus type 1 group M subtype B (isolate HXB2) (HIV-1), UniProt P04585). The experiment in a line: HIV-1 reverse transcriptase inhibitory activity (RT polymerase assay). The format is biochemical. The conditions noted are these: HIV-1 RT wild-type enzyme 83 pM; RNA-dependent DNA polymerase activity; read-out: IC50. The essentials:
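Biotinylated DNA primer annealed to HCV-derived RNA template (16.6 nM final hybrid), with 2 μM dATP/dGTP/dCTP and 66.6 nM Ru-dUTP, after 30 min compound–enzyme preincubation at room temperature; polymerization 90 min at 37 °C, EDTA quench. Product captured on avidin plates, electrochemiluminescence read; IC50 by four-parameter logistic fit versus DMSO and 1 μM efavirenz controls.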
For `CNc1ncc(Cn2cnc(C(F)(F)F)c(Oc3cc(Cl)cc(C#N)c3)c2=O)c(=O)[nH]1` [Example 137, 3-chloro-5-((1-((2-(methylamino)-6-oxo-1,6-dihydropyrimidin-5-yl)methyl)-6-oxo-4-(trifluoromethyl)-1,6-dihydropyrimidin-5-yl)oxy)benzonitrile], the IC50 is 0.009 µM.

As to `CNc1ncc(Cn2cnc(C(F)(F)F)c(Oc3cc(Cl)cc(C#N)c3)c2=O)c(OC)n1` [Example 138, 3-chloro-5-((1-((4-methoxy-2-(methylamino)pyrimidin-5-yl)methyl)-6-oxo-4-(trifluoromethyl)-1,6-dihydropyrimidin-5-yl)oxy)benzonitrile], the IC50 was found to be 0.011 µM.

For the compound `N#Cc1cc(Cl)cc(Oc2c(C(F)(F)F)ncn(Cc3cnc(OCC(F)(F)F)[nH]c3=O)c2=O)c1` [Example 139, 3-Chloro-5-{6-oxo-1-[6-oxo-2-(2,2,2-trifluoro-ethoxy)-1,6-dihydro-pyrimidin-5-ylmethyl]-4-trifluoromethyl-1,6-dihydro-pyrimidin-5-yloxy}-benzonitrile], the IC50 worked out at 0.045 µM.

Turning to `N#Cc1cc(Cl)cc(Oc2c(C(F)(F)F)ncn(Cc3cnc(Oc4ccc(F)cc4)[nH]c3=O)c2=O)c1` [Example 140, 3-Chloro-5-{1-[2-(4-fluoro-phenoxy)-6-oxo-1,6-dihydro-pyrimidin-5-ylmethyl]-6-oxo-4-trifluoromethyl-1,6-dihydro-pyrimidin-5-yloxy}-benzonitrile], the IC50 is 0.036 µM.

On to `CN(C)c1ncc(Cn2cnc(C(F)(F)F)c(Oc3cc(Cl)cc(C#N)c3)c2=O)c(=O)[nH]1` [Example 141, 3-Chloro-5-[1-(2-dimethylamino-6-oxo-1,6-dihydro-pyrimidin-5-ylmethyl)-6-oxo-4-trifluoromethyl-1,6-dihydro-pyrimidin-5-yloxy]-benzonitrile], for which the IC50 stood at 0.013 µM.

With `N#Cc1cc(Cl)cc(Oc2c(C(F)(F)F)ncn(Cc3cnc(-n4cccn4)[nH]c3=O)c2=O)c1` [Example 142, 3-Chloro-5-[6-oxo-1-(6-oxo-2-pyrazol-1-yl-1,6-dihydro-pyrimidin-5-ylmethyl)-4-trifluoromethyl-1,6-dihydro-pyrimidin-5-yloxy]-benzonitrile], the IC50 is 0.035 µM.

Consider `N#Cc1cc(Cl)cc(Oc2c(C(F)(F)F)ncn(Cc3cnc(N)[nH]c3=O)c2=O)c1` [Example 143, 3-((1-((2-amino-6-oxo-1,6-dihydropyrimidin-5-yl)methyl)-6-oxo-4-(trifluoromethyl)-1,6-dihydropyrimidin-5-yl)oxy)-5-chlorobenzonitrile], for which the half-inhibitory concentration (IC50) stood at 0.007 µM.

Regarding `CCc1ncc(Cn2cnc(C(F)(F)F)c(Oc3cc(Cl)cc(C#N)c3)c2=O)c(=O)[nH]1` [Example 144, 3-chloro-5-((1-((2-ethyl-6-oxo-1,6-dihydropyrimidin-5-yl)methyl)-6-oxo-4-(trifluoromethyl)-1,6-dihydropyrimidin-5-yl)oxy)benzonitrile], the half-inhibitory concentration (IC50) amounted to 0.009 µM.

On to `N#Cc1cc(Cl)cc(Oc2c(C(F)(F)F)ncn(Cc3cnc(C4CC4)[nH]c3=O)c2=O)c1` [Example 145, 3-chloro-5-((1-((2-cyclopropyl-6-oxo-1,6-dihydropyrimidin-5-yl)methyl)-6-oxo-4-(trifluoromethyl)-1,6-dihydropyrimidin-5-yl)oxy)benzonitrile], for which the IC50 came to 0.009 µM.

`N#Cc1cc(Cl)cc(Oc2c(C(F)(F)F)ncn(Cc3cnc(-c4ccc(F)cc4)[nH]c3=O)c2=O)c1` [Example 146, 3-chloro-5-((1-((2-(4-fluorophenyl)-6-oxo-1,6-dihydropyrimidin-5-yl)methyl)-6-oxo-4-(trifluoromethyl)-1,6-dihydropyrimidin-5-yl)oxy)benzonitrile]: the half-maximal inhibitory concentration (IC50) worked out at 0.019 µM.

With `N#Cc1cc(Cl)cc(Oc2c(C(F)(F)F)ncn(Cc3cnc(-c4ccccc4F)[nH]c3=O)c2=O)c1` [Example 147, 3-chloro-5-((1-((2-(2-fluorophenyl)-6-oxo-1,6-dihydropyrimidin-5-yl)methyl)-6-oxo-4-(trifluoromethyl)-1,6-dihydropyrimidin-5-yl)oxy)benzonitrile], the 50% inhibitory concentration (IC50) worked out at 0.017 µM.

With `N#Cc1cc(Cl)cc(Oc2c(C(F)(F)F)ncn(Cc3cnc(-c4ccn[nH]4)[nH]c3=O)c2=O)c1` [Example 148, 3-chloro-5-((6-oxo-1-((6-oxo-2-(1H-pyrazol-5-yl)-1,6-dihydropyrimidin-5-yl)methyl)-4-(trifluoromethyl)-1,6-dihydropyrimidin-5-yl)oxy)benzonitrile], the 50% inhibitory concentration (IC50) amounted to 0.009 µM.

In the case of `N#Cc1cc(Cl)cc(Oc2c(C(F)(F)F)ncn(Cc3cnc(-c4ccccc4)[nH]c3=O)c2=O)c1` [Example 149, 3-chloro-5-((6-oxo-1-((6-oxo-2-phenyl-1,6-dihydropyrimidin-5-yl)methyl)-4-(trifluoromethyl)-1,6-dihydropyrimidin-5-yl)oxy)benzonitrile], the concentration for half-maximal inhibition (IC50) worked out at 0.014 µM.

With `N#Cc1cc(Cl)cc(Oc2c(C(F)(F)F)ncn(Cc3cnc(-c4cccc(F)c4)[nH]c3=O)c2=O)c1` [Example 150, 3-chloro-5-((1-((2-(3-fluorophenyl)-6-oxo-1,6-dihydropyrimidin-5-yl)methyl)-6-oxo-4-(trifluoromethyl)-1,6-dihydropyrimidin-5-yl)oxy)benzonitrile], the 50% inhibitory concentration (IC50) was determined as 0.009 µM.

Take `N#Cc1cc(Cl)cc(Oc2c(C(F)(F)F)ncn(Cc3cnc(-c4ccc(Cl)cc4)[nH]c3=O)c2=O)c1` [Example 151, 3-chloro-5-((1-((2-(4-chlorophenyl)-6-oxo-1,6-dihydropyrimidin-5-yl)methyl)-6-oxo-4-(trifluoromethyl)-1,6-dihydropyrimidin-5-yl)oxy)benzonitrile]: the IC50 is 0.028 µM.

Consider `N#Cc1cc(Cl)cc(Oc2c(C(F)(F)F)ncn(Cc3cnc(-c4ccc(Cl)nc4)[nH]c3=O)c2=O)c1` [Example 152, 3-chloro-5-((1-((2-(6-chloropyridin-3-yl)-6-oxo-1,6-dihydropyrimidin-5-yl)methyl)-6-oxo-4-(trifluoromethyl)-1,6-dihydropyrimidin-5-yl)oxy)benzonitrile], for which the IC50 amounted to 0.032 µM.

`N#Cc1cc(Cl)cc(Oc2c(C(F)(F)F)ncn(Cc3cnc(-c4ccc(OC(F)(F)F)cc4)[nH]c3=O)c2=O)c1` [Example 153, 3-chloro-5-((6-oxo-1-((6-oxo-2-(4-(trifluoromethoxy)phenyl)-1,6-dihydropyrimidin-5-yl)methyl)-4-(trifluoromethyl)-1,6-dihydropyrimidin-5-yl)oxy)benzonitrile]: the half-maximal inhibitory concentration (IC50) came out at 0.033 µM.

Take `N#Cc1cc(Cl)cc(Oc2c(C(F)(F)F)ncn(Cc3cnc(C(N)=O)[nH]c3=O)c2=O)c1` [Example 154, 5-((5-(3-chloro-5-cyanophenoxy)-6-oxo-4-(trifluoromethyl)pyrimidin-1(6H)-yl)methyl)-6-oxo-1,6-dihydropyrimidine-2-carboxamide]: the IC50 is 0.042 µM.

On to `N#Cc1cc(Cl)cc(Oc2c(C(F)(F)F)ncn(Cc3cnc(C#N)[nH]c3=O)c2=O)c1` [Example 155, 5-((5-(3-chloro-5-cyanophenoxy)-6-oxo-4-(trifluoromethyl)pyrimidin-1(6H)-yl)methyl)-6-oxo-1,6-dihydropyrimidine-2-carbonitrile], for which the half-maximal inhibitory concentration (IC50) stood at 0.094 µM.

`CC(=O)c1ncc(Cn2cnc(C(F)(F)F)c(Oc3cc(Cl)cc(C#N)c3)c2=O)c(=O)[nH]1` [Example 156, 3-((1-((2-acetyl-6-oxo-1,6-dihydropyrimidin-5-yl)methyl)-6-oxo-4-(trifluoromethyl)-1,6-dihydropyrimidin-5-yl)oxy)-5-chlorobenzonitrile]: the 50% inhibitory concentration (IC50) worked out at 0.024 µM.

As to `N#Cc1cc(Cl)cc(Oc2c(C(F)(F)F)ncn(Cc3cnc(C(F)F)[nH]c3=O)c2=O)c1` [Example 157, 3-chloro-5-((1-((2-(difluoromethyl)-6-oxo-1,6-dihydropyrimidin-5-yl)methyl)-6-oxo-4-(trifluoromethyl)-1,6-dihydropyrimidin-5-yl)oxy)benzonitrile], the IC50 is 0.032 µM.

Take `N#Cc1cc(Cl)cc(Oc2c(C(F)(F)F)ncn(Cc3cnc(-c4ccnc5[nH]ccc45)[nH]c3=O)c2=O)c1` [Example 158, 3-chloro-5-((6-oxo-1-((6-oxo-2-(1H-pyrrolo[2,3-b]pyridin-4-yl)-1,6-dihydropyrimidin-5-yl)methyl)-4-(trifluoromethyl)-1,6-dihydropyrimidin-5-yl)oxy)benzonitrile]: the IC50 was 0.011 µM.

In the case of `N#Cc1cc(Cl)cc(Oc2c(C(F)(F)F)ncn(Cc3cnc(-c4ccc(OC(F)F)cc4)[nH]c3=O)c2=O)c1` [Example 159, 3-chloro-5-((1-((2-(4-(difluoromethoxy)phenyl)-6-oxo-1,6-dihydropyrimidin-5-yl)methyl)-6-oxo-4-(trifluoromethyl)-1,6-dihydropyrimidin-5-yl)oxy)benzonitrile], the concentration for half-maximal inhibition (IC50) was determined as 0.017 µM.

For `N#Cc1cc(Cl)cc(Oc2c(C(F)F)ncn(Cc3ccc(=O)[nH]n3)c2=O)c1` [Example 160, 3-chloro-5-((4-(difluoromethyl)-6-oxo-1-((6-oxo-1,6-dihydropyridazin-3-yl)methyl)-1,6-dihydropyrimidin-5-yl)oxy)benzonitrile], the IC50 is 0.026 µM.

With `N#Cc1cccc(Oc2c(C(F)(F)F)ncn(Cc3ccc(=O)[nH]n3)c2=O)c1F` [Example 161, 2-fluoro-3-(6-oxo-1-((6-oxo-1,6-dihydropyridazin-3-yl)methyl)-4-(trifluoromethyl)-1,6-dihydropyrimidin-5-yloxy)benzonitrile], the IC50 is 0.024 µM.

As for `N#Cc1cc(Cl)cc(Oc2c(OC(F)F)ncn(Cc3ccc(=O)[nH]n3)c2=O)c1` [Example 162, 3-chloro-5-(4-(difluoromethoxy)-6-oxo-1-((6-oxo-1,6-dihydropyridazin-3-yl)methyl)-1,6-dihydropyrimidin-5-yloxy)benzonitrile], the IC50 came to 0.079 µM.

With `N#Cc1cc(Oc2c(C(F)(F)F)ncn(Cc3ccc(=O)[nH]n3)c2=O)cc(OC(F)F)c1` [Example 163, 3-(difluoromethoxy)-5-(6-oxo-1-((6-oxo-1,6-dihydropyridazin-3-yl)methyl)-4-(trifluoromethyl)-1,6-dihydropyrimidin-5-yloxy)benzonitrile], the half-maximal inhibitory concentration (IC50) is 0.022 µM.
